Data reported in paper PMC11894153, “c-di-GMP inhibits rRNA methylation and impairs ribosome assembly in the presence of kanamycin” (EMBO Reports, 2025).
Substitutions are numbered along the chain they refer to.

What was measured:
RlmE = target: T1, RlmE (Escherichia coli, UniProt P0C0R7); assay: in vitro rRNA methylation, HPLC; type: biochemical
T1 construct: pCA24N or pGEX4T-1 plasmid; purified
T1 sequence (P0C0R7 1-209): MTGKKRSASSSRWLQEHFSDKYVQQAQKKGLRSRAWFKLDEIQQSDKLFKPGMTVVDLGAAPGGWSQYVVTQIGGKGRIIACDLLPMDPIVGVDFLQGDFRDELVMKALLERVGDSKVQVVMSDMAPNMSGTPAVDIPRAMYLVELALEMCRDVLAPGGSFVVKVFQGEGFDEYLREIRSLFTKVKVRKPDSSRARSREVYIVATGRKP

RlmI [1] = target: T2, RlmI (Escherichia coli, UniProt P75876); assay: ITC; type: binding
T2 construct: pCA24N or pGEX4T-1 plasmid; His tag detected by anti-His; purified
T2 sequence (P75876 1-396): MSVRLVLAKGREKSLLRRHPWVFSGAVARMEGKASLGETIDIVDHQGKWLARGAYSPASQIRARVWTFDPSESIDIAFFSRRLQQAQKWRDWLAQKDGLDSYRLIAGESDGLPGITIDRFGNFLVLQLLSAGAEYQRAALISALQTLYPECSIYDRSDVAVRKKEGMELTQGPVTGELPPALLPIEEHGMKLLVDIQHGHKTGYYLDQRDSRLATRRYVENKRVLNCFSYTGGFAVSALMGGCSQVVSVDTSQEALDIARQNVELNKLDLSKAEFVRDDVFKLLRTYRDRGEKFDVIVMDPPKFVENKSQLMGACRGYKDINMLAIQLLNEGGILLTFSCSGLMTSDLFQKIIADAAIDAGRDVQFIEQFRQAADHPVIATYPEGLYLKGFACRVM

RlmI [2] = target: T3, RlmI (Escherichia coli, UniProt P75876, K201A); assay: ITC; type: binding
T3 construct: pCA24N or pGEX4T-1 plasmid; His tag detected by anti-His; purified
T3 sequence (P75876 1-396 K201A): T2 sequence (P75876 1-396) with K201A

RlmI [3] = target: T4, RlmI (Escherichia coli, UniProt P75876, R103A); assay: ITC; type: binding
T4 construct: pCA24N or pGEX4T-1 plasmid; His tag detected by anti-His; purified
T4 sequence (P75876 1-396 R103A): T2 sequence (P75876 1-396) with R103A

RlmI [4] = target: T2, RlmI; assay: in vitro rRNA methylation, HPLC; type: biochemical
RlmI [5] = target: T5, RlmI (Escherichia coli, UniProt P75876, R64A); assay: ITC; type: binding
T5 construct: pCA24N or pGEX4T-1 plasmid; His tag detected by anti-His; purified
T5 sequence (P75876 1-396 R64A): T2 sequence (P75876 1-396) with R64A

RlmI [6] = target: T6, RlmI (Escherichia coli, UniProt P75876, G114A); assay: ITC; type: binding
T6 construct: pCA24N or pGEX4T-1 plasmid; His tag detected by anti-His; purified
T6 sequence (P75876 1-396 G114A): T2 sequence (P75876 1-396) with G114A

Question: With `Nc1nc2c(ncn2[C@@H]2O[C@@H]3CO[P@](=O)(O)O[C@H]4[C@@H](O)[C@H](n5cnc6c(=O)[nH]c(N)nc65)O[C@@H]4CO[P@](=O)(O)O[C@H]3[C@H]2O)c(=O)[nH]1` [c-di-GMP] as the compound, how does the inhibition at 5 µM (RlmE) read?
Answer: The inhibition at 5 µM was 31%.

Question: What about the Kd (RlmI [1]) of the same compound?
Answer: Its Kd is 1.3 µM.

Question: And the Kd (RlmI [2])?
Answer: The Kd was 401 µM.

Question: And the Kd (RlmI [3])?
Answer: The Kd was 76.5 µM.

Question: And the inhibition at 5 µM (RlmI [4])?
Answer: Its inhibition at 5 µM is 49%.

Question: What about the Kd (RlmI [5]) of the same compound?
Answer: The Kd was 102 µM.

Question: And the Kd (RlmI [6])?
Answer: The Kd was 149 µM.
